A word on the IC50: it is the point on the concentration scale where inhibition reaches its midpoint.

The structures appear in SMILES notation.

The text below walks through data of ChEMBL document CHEMBL4602628, “Design, synthesis, and enzymatic characterization of quinazoline-based CYP1A2 inhibitors” (Bioorg Med Chem Lett, 2020).

In the assay the target is T1, Cytochrome P450 1A2 (Homo sapiens, UniProt P05177).
T1 sequence (P05177 whole entry): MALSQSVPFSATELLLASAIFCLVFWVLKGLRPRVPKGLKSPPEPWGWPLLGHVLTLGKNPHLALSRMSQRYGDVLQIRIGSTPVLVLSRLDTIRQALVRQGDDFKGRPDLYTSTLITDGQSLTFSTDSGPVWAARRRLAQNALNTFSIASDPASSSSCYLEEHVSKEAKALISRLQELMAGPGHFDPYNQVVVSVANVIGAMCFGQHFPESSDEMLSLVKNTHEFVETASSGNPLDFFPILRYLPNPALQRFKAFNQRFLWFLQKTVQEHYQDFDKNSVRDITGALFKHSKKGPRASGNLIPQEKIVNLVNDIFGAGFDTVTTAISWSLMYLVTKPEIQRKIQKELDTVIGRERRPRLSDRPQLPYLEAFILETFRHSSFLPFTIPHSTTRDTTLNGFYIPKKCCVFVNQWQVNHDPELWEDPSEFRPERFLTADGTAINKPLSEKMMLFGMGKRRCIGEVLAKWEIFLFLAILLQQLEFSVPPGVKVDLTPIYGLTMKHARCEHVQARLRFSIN
The assay can be described thus: Inhibition of recombinant human CYP1A2 using luciferin-ME as substrate preincubated for 10 mins followed by NADPH addition and measured after 10 to 30 mins by P450-Glo assay.
In the case of `O=[N+]([O-])c1cccc(-c2ncc3ccccc3n2)c1`, the IC50 was found to be 1.2 µM.
For `c1ccc2nc(-c3ccnc4ccccc34)ncc2c1` the value was 0.96 µM; for `CN(C)c1ccc(-c2ncc3ccccc3n2)cc1`, 4.2 µM.
